This passage reports relative viability results from the supplement of paper PMC10307832.

Assay in all cases: relative viability (nuclei count vs DMSO), 5 days (fraction); higher = more cells survive
Compound in the test “Obatoclax + Bortezomib”: COC1=CC(c2cc3ccccc3[nH]2)=N/C1=C\c1[nH]c(C)cc1C [Obatoclax] + CC(C)C[C@H](NC(=O)[C@H](Cc1ccccc1)NC(=O)c1cnccn1)B(O)O [Bortezomib] (partner 0.002 µM)
The method, boiled down: (§1)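 Medians of duplicate plates are given as relative viability. That measure is the nuclei count in treated wells divided by the count in vehicle wells. Counts were taken on 4× images of lung cancer cell lines in 1536-well plates, 5 days after pin-tool dosing the day after seeding with one drug alone or a fixed anchor-drug dose plus five library-drug doses (not always all listed) in √10 steps.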

Compound in the test “Bortezomib + Crizotinib”: CC(C)C[C@H](NC(=O)[C@H](Cc1ccccc1)NC(=O)c1cnccn1)B(O)O [Bortezomib] + C[C@@H](Oc1cc(-c2cnn(C3CCNCC3)c2)cnc1N)c1c(Cl)ccc(F)c1Cl [Crizotinib] (partner 1 µM)
The essentials: as §1

Compound in the test “Bortezomib + Decitabine”: CC(C)C[C@H](NC(=O)[C@H](Cc1ccccc1)NC(=O)c1cnccn1)B(O)O [Bortezomib] + Nc1ncn([C@H]2C[C@H](O)[C@@H](CO)O2)c(=O)n1 [Decitabine] (partner 2 µM)
The method, boiled down:
as §1

Compound in the test “Bortezomib + Navitoclax”: CC(C)C[C@H](NC(=O)[C@H](Cc1ccccc1)NC(=O)c1cnccn1)B(O)O [Bortezomib] + CC1(C)CCC(c2ccc(Cl)cc2)=C(CN2CCN(c3ccc(C(=O)NS(=O)(=O)c4ccc(N[C@H](CCN5CCOCC5)CSc5ccccc5)c(S(=O)(=O)C(F)(F)F)c4)cc3)CC2)C1 [Navitoclax] (partner 0.5 µM)
The essentials: as §1

For the cell line 201T, the relative viability with Obatoclax + Bortezomib (first compound 0.01 µM) is 1.09; with Obatoclax + Bortezomib (first compound 0.03162 µM) it was 1.01; in the test with Obatoclax + Bortezomib (first compound 0.1 µM), 1.13; in the test with Obatoclax + Bortezomib (first compound 0.3162 µM) it was 1.1; with Obatoclax + Bortezomib (first compound 1 µM), 1.1; with Bortezomib + Crizotinib (first compound 0.0002 µM), 0.999. The relative viability with Bortezomib + Crizotinib (first compound 0.000632 µM) turned out to be 1.07; with Bortezomib + Crizotinib (first compound 0.002 µM), 1.02; in the test with Bortezomib + Crizotinib (first compound 0.006325 µM), 1.02; with Bortezomib + Crizotinib (first compound 0.02 µM), 0.32; with Bortezomib + Decitabine (first compound 0.0002 µM), 0.846; with Bortezomib + Decitabine (first compound 0.000632 µM), 0.859. In addition, the relative viability in the test with Bortezomib + Decitabine (first compound 0.002 µM) was found to be 0.894; with Bortezomib + Decitabine (first compound 0.006325 µM), 0.819; with Bortezomib + Decitabine (first compound 0.02 µM), 0.274; in the test with Bortezomib + Navitoclax (first compound 0.0002 µM), 1.21; with Bortezomib + Navitoclax (first compound 0.000632 µM) it was 1.19; with Bortezomib + Navitoclax (first compound 0.002 µM) it was 1.21. For the same cell line, the relative viability worked out at 1.22 with Bortezomib + Navitoclax (first compound 0.006325 µM) and 1.23 with Bortezomib + Navitoclax (first compound 0.02 µM).

For the cell line A549, the relative viability in the test with Bortezomib + Crizotinib (first compound 0.0002 µM) is 0.767; with Bortezomib + Crizotinib (first compound 0.000632 µM), 0.631; in the test with Bortezomib + Crizotinib (first compound 0.002 µM) it was 0.789; with Bortezomib + Crizotinib (first compound 0.006325 µM) it was 0.0392; with Bortezomib + Crizotinib (first compound 0.02 µM), 0.0432; in the test with Bortezomib + Decitabine (first compound 0.0002 µM), 0.294. Moreover, the relative viability with Bortezomib + Decitabine (first compound 0.000632 µM) was 0.205; in the test with Bortezomib + Decitabine (first compound 0.002 µM), 0.339; in the test with Bortezomib + Decitabine (first compound 0.006325 µM), 0.201; with Bortezomib + Decitabine (first compound 0.02 µM), 0.248; with Bortezomib + Navitoclax (first compound 0.0002 µM), 1.14; in the test with Bortezomib + Navitoclax (first compound 0.000632 µM), 1.22. Further, the values for the relative viability with Bortezomib + Navitoclax (first compound 0.002 µM), in the test with Bortezomib + Navitoclax (first compound 0.006325 µM) and with Bortezomib + Navitoclax (first compound 0.02 µM) were 1.07, 0.0316 and 0.0335, respectively.

A-427: the relative viability with Obatoclax + Bortezomib (first compound 0.01 µM) was 1.02; with Obatoclax + Bortezomib (first compound 0.03162 µM) it was 0.966; in the test with Obatoclax + Bortezomib (first compound 0.1 µM), 1.01; with Obatoclax + Bortezomib (first compound 0.3162 µM), 1.01; with Obatoclax + Bortezomib (first compound 1 µM) it was 0.944; with Bortezomib + Crizotinib (first compound 0.0002 µM), 0.867. Besides, the relative viability in the test with Bortezomib + Crizotinib (first compound 0.000632 µM) came out at 0.859; in the test with Bortezomib + Crizotinib (first compound 0.002 µM) it was 0.866; with Bortezomib + Crizotinib (first compound 0.006325 µM) it was 0.521; with Bortezomib + Crizotinib (first compound 0.02 µM), 0.0943; in the test with Bortezomib + Decitabine (first compound 0.0002 µM), 0.531; with Bortezomib + Decitabine (first compound 0.000632 µM) it was 0.536. Besides, the relative viability is 0.579 with Bortezomib + Decitabine (first compound 0.002 µM); 0.247 in the test with Bortezomib + Decitabine (first compound 0.006325 µM); 0.18 with Bortezomib + Decitabine (first compound 0.02 µM); 0.91 with Bortezomib + Navitoclax (first compound 0.0002 µM); 1.01 with Bortezomib + Navitoclax (first compound 0.000632 µM); 0.963 with Bortezomib + Navitoclax (first compound 0.002 µM). The values for the relative viability with Bortezomib + Navitoclax (first compound 0.006325 µM) and with Bortezomib + Navitoclax (first compound 0.02 µM) were 0.988 and 0.112, respectively.

With ABC-1, the relative viability in the test with Obatoclax + Bortezomib (first compound 0.01 µM) came out at 0.323; with Obatoclax + Bortezomib (first compound 0.03162 µM), 0.134; in the test with Obatoclax + Bortezomib (first compound 0.1 µM) it was 0.23; with Obatoclax + Bortezomib (first compound 0.3162 µM), 0.323; with Obatoclax + Bortezomib (first compound 1 µM), 0.212; in the test with Bortezomib + Crizotinib (first compound 0.0002 µM), 1.1. The relative viability with Bortezomib + Crizotinib (first compound 0.000632 µM) came to 0.693; in the test with Bortezomib + Crizotinib (first compound 0.002 µM) it was 0.22; in the test with Bortezomib + Crizotinib (first compound 0.006325 µM), 0.178; with Bortezomib + Crizotinib (first compound 0.02 µM), 0.195; with Bortezomib + Decitabine (first compound 0.0002 µM) it was 1.09; with Bortezomib + Decitabine (first compound 0.000632 µM) it was 1. Further, the relative viability with Bortezomib + Decitabine (first compound 0.002 µM) came out at 0.389; in the test with Bortezomib + Decitabine (first compound 0.006325 µM) it was 0.284; with Bortezomib + Decitabine (first compound 0.02 µM) it was 0.287.

As to BEN, the relative viability was 0.826 in the test with Obatoclax + Bortezomib (first compound 0.01 µM); 0.735 in the test with Obatoclax + Bortezomib (first compound 0.03162 µM); 0.356 with Obatoclax + Bortezomib (first compound 0.1 µM); 0.734 in the test with Obatoclax + Bortezomib (first compound 0.3162 µM); 0.838 with Obatoclax + Bortezomib (first compound 1 µM); 0.78 with Bortezomib + Crizotinib (first compound 0.0002 µM). For the same cell line, the relative viability with Bortezomib + Crizotinib (first compound 0.000632 µM) was 0.821; with Bortezomib + Crizotinib (first compound 0.002 µM), 0.58; with Bortezomib + Crizotinib (first compound 0.006325 µM), 0.447; with Bortezomib + Crizotinib (first compound 0.02 µM), 0.134; with Bortezomib + Decitabine (first compound 0.0002 µM), 0.716; in the test with Bortezomib + Decitabine (first compound 0.000632 µM) it was 0.801. The relative viability with Bortezomib + Decitabine (first compound 0.002 µM) stood at 0.678; with Bortezomib + Decitabine (first compound 0.006325 µM) it was 0.522; with Bortezomib + Decitabine (first compound 0.02 µM), 0.337; with Bortezomib + Navitoclax (first compound 0.0002 µM) it was 0.0276; with Bortezomib + Navitoclax (first compound 0.000632 µM) it was 0.0636; in the test with Bortezomib + Navitoclax (first compound 0.002 µM), 0.151. The relative viability with Bortezomib + Navitoclax (first compound 0.006325 µM) is 0.0617; with Bortezomib + Navitoclax (first compound 0.02 µM), 0.0356.

On to CAL-12T, for which the relative viability with Obatoclax + Bortezomib (first compound 0.01 µM) was found to be 0.969; with Obatoclax + Bortezomib (first compound 0.03162 µM), 1.02; with Obatoclax + Bortezomib (first compound 0.1 µM), 0.915; with Obatoclax + Bortezomib (first compound 0.3162 µM), 0.697; with Obatoclax + Bortezomib (first compound 1 µM), 0.567; with Bortezomib + Crizotinib (first compound 0.0002 µM), 0.888. Besides, the relative viability is 0.551 with Bortezomib + Crizotinib (first compound 0.000632 µM); 0.61 with Bortezomib + Crizotinib (first compound 0.002 µM); 0.241 in the test with Bortezomib + Crizotinib (first compound 0.006325 µM); 0.1 with Bortezomib + Crizotinib (first compound 0.02 µM); 1.27 with Bortezomib + Navitoclax (first compound 0.0002 µM); 1.14 with Bortezomib + Navitoclax (first compound 0.000632 µM). Also, the relative viability in the test with Bortezomib + Navitoclax (first compound 0.002 µM) was found to be 1.26; with Bortezomib + Navitoclax (first compound 0.006325 µM) it was 0.19; with Bortezomib + Navitoclax (first compound 0.02 µM) it was 0.123.

As to COR-L23, the relative viability worked out at 0.962 in the test with Obatoclax + Bortezomib (first compound 0.01 µM); 1 in the test with Obatoclax + Bortezomib (first compound 0.03162 µM); 0.961 in the test with Obatoclax + Bortezomib (first compound 0.1 µM); 0.461 in the test with Obatoclax + Bortezomib (first compound 0.3162 µM); 0.187 in the test with Obatoclax + Bortezomib (first compound 1 µM); 0.669 in the test with Bortezomib + Crizotinib (first compound 0.0002 µM). Further, the relative viability came to 0.581 with Bortezomib + Crizotinib (first compound 0.000632 µM); 0.595 with Bortezomib + Crizotinib (first compound 0.002 µM); 0.0447 with Bortezomib + Crizotinib (first compound 0.006325 µM); 0.0472 with Bortezomib + Crizotinib (first compound 0.02 µM); 0.439 with Bortezomib + Decitabine (first compound 0.0002 µM); 0.417 in the test with Bortezomib + Decitabine (first compound 0.000632 µM). Moreover, the relative viability in the test with Bortezomib + Decitabine (first compound 0.002 µM) was 0.396; with Bortezomib + Decitabine (first compound 0.006325 µM) it was 0.0939; in the test with Bortezomib + Decitabine (first compound 0.02 µM), 0.0825; with Bortezomib + Navitoclax (first compound 0.0002 µM) it was 0.933; with Bortezomib + Navitoclax (first compound 0.000632 µM) it was 1.02; with Bortezomib + Navitoclax (first compound 0.002 µM), 0.528. Moreover, the relative viability worked out at 0.0681 with Bortezomib + Navitoclax (first compound 0.006325 µM) and 0.0713 in the test with Bortezomib + Navitoclax (first compound 0.02 µM).
